{"source": "patent US20260285850A1", "about": "“SUBSTITUTED OXAZOLIDINONES AND IMIDAZOLINONES AS HERBICIDES” (FMC CORPORATION, priority 2023, published 2026)", "assay_type_in_all_cases": "in vivo", "key": {"[1]": {"system": "barnyardgrass (Echinochloa crus-galli)", "assay": "Test A preemergence soil spray, visual injury rating 0-100", "details": "10 days, 0 = no effect, 100 = complete control", "summary_of_the_method": "(§1)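 Plants were grown in a loam soil-sand blend and treated with test chemical in a non-phytotoxic solvent mixture containing surfactant, either sprayed on soil preemergence or applied postemergence to 2-10 cm plants. After 10 days in a greenhouse, injury was scored visually against untreated controls, 0 meaning no effect and 100 complete control.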"}, "[2]": {"system": "blackgrass (Alopecurus myosuroides)", "assay": "Test A preemergence soil spray, visual injury rating 0-100", "details": "10 days, 0 = no effect, 100 = complete control", "summary_of_the_method": "as §1"}, "corn (Zea mays) [3]": {"system": "corn (Zea mays)", "assay": "Test A preemergence soil spray, visual injury rating 0-100", "details": "10 days, 0 = no effect, 100 = complete control", "summary_of_the_method": "as §1"}, "[4]": {"system": "green foxtail (Setaria viridis)", "assay": "Test A preemergence soil spray, visual injury rating 0-100", "details": "10 days, 0 = no effect, 100 = complete control", "summary_of_the_method": "as §1"}, "kochia (Bassia scoparia) [5]": {"system": "kochia (Bassia scoparia)", "assay": "Test A preemergence soil spray, visual injury rating 0-100", "details": "10 days, 0 = no effect, 100 = complete control", "summary_of_the_method": "as §1"}, "[6]": {"system": "oat, wild (wild oat, Avena fatua)", "assay": "Test A preemergence soil spray, visual injury rating 0-100", "details": "10 days, 0 = no effect, 100 = complete control", "summary_of_the_method": "as §1"}, "[7]": {"system": "palmer (palmer amaranth, palmer pigweed, Amaranthus palmeri)", "assay": "Test A preemergence soil spray, visual injury rating 0-100", "details": "10 days, 0 = no effect, 100 = complete control", "summary_of_the_method": "as §1"}, "[8]": {"system": "ragweed (common ragweed, Ambrosia artemisiifolia)", "assay": "Test A preemergence soil spray, visual injury rating 0-100", "details": "10 days, 0 = no effect, 100 = complete control", "summary_of_the_method": "as §1"}, "[9]": {"system": "ryegrass, Italian (italian ryegrass, Lolium multiflorum)", "assay": "Test A preemergence soil spray, visual injury rating 0-100", "details": "10 days, 0 = no effect, 100 = complete control", "summary_of_the_method": "as §1"}, "soybean (Glycine max) [10]": {"system": "soybean (Glycine max)", "assay": "Test A preemergence soil spray, visual injury rating 0-100", "details": "10 days, 0 = no effect, 100 = complete control", "summary_of_the_method": "as §1"}, "[11]": {"system": "wheat (Triticum aestivum)", "assay": "Test A preemergence soil spray, visual injury rating 0-100", "details": "10 days, 0 = no effect, 100 = complete control", "summary_of_the_method": "as §1"}, "[12]": {"system": "barnyardgrass (Echinochloa crus-galli)", "assay": "Test A postemergence application, visual injury rating 0-100", "details": "10 days", "summary_of_the_method": "as §1"}, "[13]": {"system": "blackgrass (Alopecurus myosuroides)", "assay": "Test A postemergence application, visual injury rating 0-100", "details": "10 days", "summary_of_the_method": "as §1"}, "corn (Zea mays) [14]": {"system": "corn (Zea mays)", "assay": "Test A postemergence application, visual injury rating 0-100", "details": "10 days", "summary_of_the_method": "as §1"}, "[15]": {"system": "galium (catchweed bedstraw, Galium aparine)", "assay": "Test A postemergence application, visual injury rating 0-100", "details": "10 days", "summary_of_the_method": "as §1"}, "[16]": {"system": "green foxtail (Setaria viridis)", "assay": "Test A postemergence application, visual injury rating 0-100", "details": "10 days", "summary_of_the_method": "as §1"}, "[17]": {"system": "horseweed (Erigeron canadensis)", "assay": "Test A postemergence application, visual injury rating 0-100", "details": "10 days", "summary_of_the_method": "as §1"}, "kochia (Bassia scoparia) [18]": {"system": "kochia (Bassia scoparia)", "assay": "Test A postemergence application, visual injury rating 0-100", "details": "10 days", "summary_of_the_method": "as §1"}, "[19]": {"system": "oat, wild (wild oat, Avena fatua)", "assay": "Test A postemergence application, visual injury rating 0-100", "details": "10 days", "summary_of_the_method": "as §1"}, "[20]": {"system": "palmer (palmer amaranth, palmer pigweed, Amaranthus palmeri)", "assay": "Test A postemergence application, visual injury rating 0-100", "details": "10 days", "summary_of_the_method": "as §1"}, "[21]": {"system": "ragweed (common ragweed, Ambrosia artemisiifolia)", "assay": "Test A postemergence application, visual injury rating 0-100", "details": "10 days", "summary_of_the_method": "as §1"}, "[22]": {"system": "ryegrass, Italian (italian ryegrass, Lolium multiflorum)", "assay": "Test A postemergence application, visual injury rating 0-100", "details": "10 days", "summary_of_the_method": "as §1"}, "soybean (Glycine max) [23]": {"system": "soybean (Glycine max)", "assay": "Test A postemergence application, visual injury rating 0-100", "details": "10 days", "summary_of_the_method": "as §1"}, "[24]": {"system": "wheat (Triticum aestivum)", "assay": "Test A postemergence application, visual injury rating 0-100", "details": "10 days", "summary_of_the_method": "as §1"}, "[25]": {"system": "barnyardgrass (Echinochloa crusgalli)", "assay": "Test B flooded paddy test, visual plant response rating 0-100", "details": "250 g ai/ha, Flood, applied to paddy water, evaluated after 13 days", "summary_of_the_method": "(§2)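 2-leaf plants; flood 3 cm over soil; compound dosed into paddy water; depth kept constant; greenhouse 13 d; visual scoring vs controls. Dash = no result.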"}, "[26]": {"system": "ducksalad (Heteranthera limosa)", "assay": "Test B flooded paddy test, visual plant response rating 0-100", "details": "250 g ai/ha, Flood, applied to paddy water, evaluated after 13 days", "summary_of_the_method": "as §2"}, "rice (Oryza sativa)": {"system": "rice (Oryza sativa)", "assay": "Test B flooded paddy test, visual plant response rating 0-100", "details": "250 g ai/ha, Flood, applied to paddy water, evaluated after 13 days", "summary_of_the_method": "as §2"}, "[27]": {"system": "sedge, umbrella (small-flower umbrella sedge, Cyperus difformis)", "assay": "Test B flooded paddy test, visual plant response rating 0-100", "details": "250 g ai/ha, Flood, applied to paddy water, evaluated after 13 days", "summary_of_the_method": "as §2"}, "[28]": {"details": "31 g ai/ha, postemergence, 0 = no effect, 100 = complete control"}, "[29]": {"details": "Postemergence, 125 g ai/ha, 0 is no effect, 100 is complete control"}}, "data": [{"smiles": "CCOC(=O)C1CCC(NC(=O)C2(C)CN(c3cc(F)cc(Cl)c3)C(=O)O2)C1", "note": "(stereo not shown) [Compound 19]", "values": [{"measurement": "Barnyardgrass plant response rating (0-100)", "setting": "[1]; 31 g ai/ha", "value": 30}, {"measurement": "Barnyardgrass plant response rating (0 to 100 scale)", "setting": "[1]; 125 g ai/ha", "value": 80}, {"measurement": "Blackgrass plant response rating (0-100)", "setting": "[2]; 31 g ai/ha", "value": 0}, {"measurement": "Blackgrass plant response rating (0 to 100 scale)", "setting": "[2]; 125 g ai/ha", "value": 50}, {"measurement": "Corn plant response rating (0-100)", "setting": "corn (Zea mays) [3]; 31 g ai/ha", "value": 10}, {"measurement": "Corn plant response rating (0 to 100 scale)", "setting": "corn (Zea mays) [3]; 125 g ai/ha", "value": 50}, {"measurement": "Foxtail, Green plant response rating (0-100)", "setting": "[4]; 31 g ai/ha", "value": 50}, {"measurement": "Foxtail, Green plant response rating (0 to 100 scale)", "setting": "[4]; 125 g ai/ha", "value": 90}, {"measurement": "Kochia plant response rating (0-100)", "setting": "kochia (Bassia scoparia) [5]; 31 g ai/ha", "value": 0}, {"measurement": "Kochia plant response rating (0 to 100 scale)", "setting": "kochia (Bassia scoparia) [5]; 125 g ai/ha", "value": 90}, {"measurement": "Oat, Wild plant response rating (0-100)", "setting": "[6]; 31 g ai/ha", "value": 0}, {"measurement": "Oat, Wild plant response rating (0 to 100 scale)", "setting": "[6]; 125 g ai/ha", "value": 60}, {"measurement": "Amaranth, Palmer plant response rating (0-100)", "setting": "[7]; 31 g ai/ha", "value": 30}, {"measurement": "Amaranth, Palmer plant response rating (0 to 100 scale)", "setting": "[7]; 125 g ai/ha", "value": 90}, {"measurement": "Ragweed plant response rating (0-100)", "setting": "[8]; 31 g ai/ha", "value": 0}, {"measurement": "Ragweed plant response rating (0 to 100 scale)", "setting": "[8]; 125 g ai/ha", "value": 0}, {"measurement": "Ryegrass, Italian plant response rating (0-100)", "setting": "[9]; 31 g ai/ha", "value": 80}, {"measurement": "Ryegrass, Italian plant response rating (0 to 100 scale)", "setting": "[9]; 125 g ai/ha", "value": 80}, {"measurement": "Soybean plant response rating (0-100)", "setting": "soybean (Glycine max) [10]; 31 g ai/ha", "value": 0}, {"measurement": "Soybean plant response rating (0 to 100 scale)", "setting": "soybean (Glycine max) [10]; 125 g ai/ha", "value": 20}, {"measurement": "Wheat plant response rating (0-100)", "setting": "[11]; 31 g ai/ha", "value": 70}, {"measurement": "Wheat plant response rating (0 to 100 scale)", "setting": "[11]; 125 g ai/ha", "value": 90}, {"measurement": "Barnyardgrass plant response rating (0-100)", "setting": "[12]; [28]", "value": 60}, {"measurement": "Barnyardgrass plant response rating (0 to 100 scale)", "setting": "[12]; [29]", "value": 100}, {"measurement": "Blackgrass plant response rating (0-100)", "setting": "[13]; [28]", "value": 70}, {"measurement": "Blackgrass plant response rating (0 to 100 scale)", "setting": "[13]; [29]", "value": 90}, {"measurement": "Corn plant response rating (0-100)", "setting": "corn (Zea mays) [14]; [28]", "value": 50}, {"measurement": "Corn plant response rating (0 to 100 scale)", "setting": "corn (Zea mays) [14]; [29]", "value": 100}, {"measurement": "Galium plant response rating (0-100)", "setting": "[15]; [28]", "value": 80}, {"measurement": "Galium plant response rating (0 to 100 scale)", "setting": "[15]; [29]", "value": 80}, {"measurement": "Foxtail, Green plant response rating (0-100)", "setting": "[16]; [28]", "value": 40}, {"measurement": "Foxtail, Green plant response rating (0 to 100 scale)", "setting": "[16]; [29]", "value": 90}, {"measurement": "Horseweed plant response rating (0-100)", "setting": "[17]; [28]", "value": 0}, {"measurement": "Horseweed plant response rating (0 to 100 scale)", "setting": "[17]; [29]", "value": 0}, {"measurement": "Kochia plant response rating (0-100)", "setting": "kochia (Bassia scoparia) [18]; [28]", "value": 10}, {"measurement": "Kochia plant response rating (0 to 100 scale)", "setting": "kochia (Bassia scoparia) [18]; [29]", "value": 70}, {"measurement": "Oat, Wild plant response rating (0-100)", "setting": "[19]; [28]", "value": 90}, {"measurement": "Oat, Wild plant response rating (0 to 100 scale)", "setting": "[19]; [29]", "value": 90}, {"measurement": "Amaranth, Palmer plant response rating (0-100)", "setting": "[20]; [28]", "value": 30}, {"measurement": "Amaranth, Palmer / Pigweed, Palmer plant response rating (0 to 100 scale)", "setting": "[20]; [29]", "value": 90}, {"measurement": "Ragweed plant response rating (0-100)", "setting": "[21]; [28]", "value": 0}, {"measurement": "Ragweed plant response rating (0 to 100 scale)", "setting": "[21]; [29]", "value": 40}, {"measurement": "Ryegrass, Italian plant response rating (0-100)", "setting": "[22]; [28]", "value": 90}, {"measurement": "Ryegrass, Italian plant response rating (0 to 100 scale)", "setting": "[22]; [29]", "value": 90}, {"measurement": "Soybean plant response rating (0-100)", "setting": "soybean (Glycine max) [23]; [28]", "value": 50}, {"measurement": "Soybean plant response rating (0 to 100 scale)", "setting": "soybean (Glycine max) [23]; [29]", "value": 60}, {"measurement": "Wheat plant response rating (0-100)", "setting": "[24]; [28]", "value": 80}, {"measurement": "Wheat plant response rating (0 to 100 scale)", "setting": "[24]; [29]", "value": 90}, {"measurement": "Plant response rating, Barnyardgrass (0 to 100 scale, 0 is no effect and 100 is complete control)", "setting": "[25]", "value": 65}, {"measurement": "Plant response rating, Ducksalad (0 to 100 scale, 0 is no effect and 100 is complete control)", "setting": "[26]", "value": 70}, {"measurement": "Plant response rating, Rice (0 to 100 scale, 0 is no effect and 100 is complete control)", "setting": "rice (Oryza sativa)", "value": 0}, {"measurement": "Plant response rating, Sedge, Umbrella (0 to 100 scale, 0 is no effect and 100 is complete control)", "setting": "[27]", "value": 60}]}]}
